Key:
Type in all cases: functional
Mus musculus [1] = organism: Mus musculus; test: Optimal dose required for activity against P388 lymphocytic leukemia.
Mus musculus [2] = test: In vivo activity against P388 lymphocytic leukemia, and the maximum T/C values were reported. T/C >=125 is considered active
Mus musculus [3] = organism: Mus musculus; test: Optimal dose required for activity against P388 lymphocytic leukemia

SMILES	OD (Mus musculus [1]) [mg/kg]	Max T/C (Mus musculus [2])	OD (Mus musculus [3]) [mg/kg]
C/C=C1\C[C@H]2[C@@H](OC)Nc3cc(O)c(OC)cc3C(=O)N2C1	0.2	188	–
C/C=C/CN1CC=Nc2c(O)cccc2C1=O	20	138	–
O=C1c2ccccc2N=CC2CCCN12 (stereo unspecified)	8	133	–
COc1cc2c(cc1O)N[C@H](OC)[C@@H]1CC(O)CN1C2=O (stereo partly specified)	6.4	144	–
O=C1c2cccc(O)c2N=CCN1Cc1ccccc1	16	100	–
COC(=O)/C=C1/C[C@H]2[C@@H](S(=O)(=O)[O-])Nc3cc(O)c(OC)cc3C(=O)N2C1.[Na+]	6	131	–
CCOC(=O)CN1CC=Nc2c(O)cccc2C1=O	40	106	–
CN1CC=Nc2c(O)cccc2C1=O	16	122	–
O=C1NCC=Nc2c(O)cccc21	16	125	–
COc1cc2c(cc1O)N[C@@H](OC)[C@@H]1CC(O)CN1C2=O (stereo partly specified)	16	100	–
C=CCN1CC=Nc2c(O)cccc2C1=O	80	117	–
C#CCN1CC=Nc2c(O)cccc2C1=O	16	162	–
COc1cc2c(cc1OC(C)=O)N[C@H](OC)[C@@H]1CC(OC(C)=O)CN1C2=O (stereo partly specified)	–	100	16
